Experimental data published in patent publication US20220274927A1, “MEMBRANE-ACTIVE ANTI-BACTERIAL COMPOUNDS AND USES THEREOF” (Trustees of Dartmouth College, priority 2019, published 2022).
Values after ≈ are worked out from the molar mass of the structure shown. “Also recorded” adds a separate entry of the source. Read-outs that look alike come from different tables or passages of the source. One block for each compound: values may come before it.

Assays:
E. faecalis SMC374 = test: Antimicrobial susceptibility MIC, E. faecalis SMC374; format: cell-based; settings: Enterococcus faecalis
Text: (§1) The first set of compounds evaluated were analogs at the C-7 and C-8 positions of the initial quinolone hit DNAC-2 since the other HTS hits identified (data not shown) were substituted at these positions (Table 1). Applicants first explored modification at the C-7 position with a small series of electron-donating and withdrawing substituents. […] However, analogs containing electron donating groups at C-7 including ethyl 7, benzyloxy 8, methoxy 9 and methylthio 10 are weakly active displaying MICs of 320-640 μg/mL indicating electron-donating substituents at C-7 are poorly tolerated. […] The C-8 position was evaluated with trifluoromethyl 4 and trifluoromethoxy 5 containing the optimal C-7 substituents. Both 4 and 5 are equipotent to the corresponding C-7 analogs 2 and 3 indicating some flexibility of the quinolone scaffold.
(§2) The compounds maintain activity against Staphylococcus epidermidis; however, 31, 111 and 123 all lose considerable potency against Enterococcus faecalis and Enterococcus faecium, which contribute heavily, along with MRSA, to healthcare-associated infections.

K. pneumonia 7117 = test: Antimicrobial susceptibility MIC, K. pneumonia 7117; format: cell-based; settings: Klebsiella pneumoniae; K. pneumonia strain 7117
Text: as §1, §2

E. coli DHMC-1 = test: Antimicrobial susceptibility MIC, E. coli DHMC-1; format: cell-based; settings: Escherichia coli, DHMC1; E. coli strain DHMC-1
Text: as §1, §2

S. aureus (MRSA) = test: In vitro time-kill assay; format: cell-based; settings: 1× MIC, initial inoculum 10^5 CFU, plating over six hours
Procedure: FIG. 4 illustrates in vitro time-kill analysis of methicillin resistant Staphylococcus aureus (MRSA). Bacterial killing was monitored by measuring the colony forming unit (CFU) for six hours when treated with compounds 22, 31, 117, and 123 at 1× the minimum inhibitory concentration (MIC) of each compound. The CFU at each time point was determined by plating and then compared to a dimethyl sulfoxide (DMSO) control.
While the MIC data confirmed that these compounds were at least bacteriostatic, Applicants wanted to test for bactericidal properties of both the aminoquinoline and aminoquinolone scaffolds. […] The kinetics of bacterial killing was assessed in vitro using time-kill assays by incubating compounds at 1× their MIC with an initial inoculum of 10^5 colony forming units (CFU) of S. aureus and removing aliquots at various time points to determine the residual CFU by plating.

E. faecium ATCC19579 = test: Antimicrobial susceptibility MIC, E. faecium ATCC19579; format: cell-based; settings: Enterococcus faecium
Text: as §1, §2

[1] = test system: methicillin-resistant S. aureus (FPR3757); test: MIC against clinical MRSA strain FPR3757 in Mueller-Hinton broth (CLSI); format: cell-based, Staphylococcus aureus
Text: as §1

C. albicans = test: Antimicrobial susceptibility, C. albicans; format: cell-based, Candida albicans; settings: highest concentration tested
Text: as §2

S. aureus NIH04008 = test: Antimicrobial susceptibility MIC, S. aureus NIH04008; format: cell-based; settings: Staphylococcus aureus, NIH04008
Text: as §1, §2

[2] = test system: MRSA clinical strain S. aureus FPR3757; test: Minimum bactericidal concentration (MBC) against S. aureus FPR3757; format: cell-based
S. aureus MW2 = test: Antimicrobial susceptibility MIC, S. aureus MW2; format: cell-based; settings: Staphylococcus aureus, MW2
Text: as §1, §2

E. cloacae ND-21 = test: Antimicrobial susceptibility MIC, E. cloacae ND-21; format: cell-based; settings: Enterobacter cloacae, ND21; E. cloacae strain ND-21
Text: as §1, §2

sheep erythrocytes = test: in vitro; format: cell-based; settings: sheep, 32 μg/mL
Procedure: (§3) FIG. 8 illustrates percent hemolysis analysis of sheep erythrocytes. Concentration-dependent hemolysis was measured by monitoring the optical density (OD)540 of PBS-washed sheep erythrocytes. Complete hemolysis (100%) was confirmed by treatment of erythrocytes with Triton X-100. Data points represent the mean±SD of triplicate experiments.
(§4) The macromolecular synthesis assay, TEM, and FM experiments were all consistent with membrane disruption. […] The high membrane selectivity of the 5-aminoquinolin-4-ones in this assay is impressive and is in accordance with the observed therapeutic index (CC50/MIC).

S. aureus (strain COL) = test: Fluorescent microscopy of membrane, cell wall and DNA; format: cell-based; settings: 1× MIC, 30 minutes, vs DMSO
Procedure: FIGS. 7A and 7B illustrate fluorescent microscopy (FM) analysis of the membrane, cell wall, and DNA in MRSA. FM of COL MRSA strain treated with compound 123 (FIG. 7B, bottom row) at 1×MIC and DMSO (FIG. 7A, top row) for 30 minutes followed by staining with FM-64 (far left column, 0.5 μg/mL), VanFL (second column, 1 μg/mL), and Hoechst (third column, 1 μg/mL) for 5 minutes and washed with 1× phosphate buffered saline (PBS) before imaging (fourth column, overlay).
(§5) These cellular defects were not seen in any of the control cells treated with DMSO. Fluorescent microscopy was performed on a S. aureus (strain COL) strain after treatment with either DMSO, 31 or 123 for 30 minutes followed by staining with FM 4-64 (red membrane stain), bodipy-vancomycin (Van-FL, green stain), and Hoechst (blue DNA stain).

Staphylococcus simulans = test: Macromolecular synthesis assays (radiolabeled precursor incorporation); format: cell-based
Text: FIG. 5 illustrates macromolecular synthesis assays (representative data with 123). Time-course for inhibition of incorporation of radiolabeled precursors [^3H]-L-isoleucine (protein), [^3H]-thymidine (DNA), [^3H]-uridine (RNA), and [^3H]-glucosamine (cell wall) in S. simulans by 123 at 0.5×, 1× and 5×MIC. Data are expressed as the percentage of inhibition relative to the DMSO only negative control. The positive control antibiotics denoted by closed circles were used at 10× MIC. Data represent the mean±standard deviation (SD) of triplicate experiments.
Classical macromolecular synthesis assays were performed to provide insight on the putative mechanism of action of the most promising quinoline 31 and quinolone 123 candidates. Disruption of bacterial membranes is not only rapid, but interferes with all major metabolic activities in the cell and is thus easily distinguished by macromolecular synthesis assays. […] The control antibiotics ciprofloxacin, rifampicin, vancomycin and tetracycline were included as inhibitors of DNA, RNA, cell wall, and protein synthesis, respectively. The cells were quenched at various time points with 10% trichloroacetic acid (TCA), filtered, washed and the amount of precursor incorporation was quantified by scintillation counting.

[3] = test system: S. aureus (strain USA300); test: Transmission electron microscopy of treated cells; format: cell-based; settings: 1× MIC, after 10 minutes, vs DMSO
Procedure: FIGS. 6A, 6B and 6C illustrate transmission electron microscopy (TEM) imaging of MRSA USA300 treated with compounds 22 and 31.
Transmission electron microscopy (TEM) and fluorescence microscopy (FM) allowed Applicants to directly observe the effects of the novel 4-aminoquinolines […] 5-aminoquinolones on the cell morphology of staphylococci.
as §5

[4] = test system: clinical methicillin-resistant Staphylococcus aureus (MRSA) isolates; test: MIC against panel of MRSA / staphylococcal strains (text summaries); format: cell-based; settings: six S. aureus strains of Table 9, read-out: MIC towards all six S. aureus strains
Text: as §1, §2

[5] = test system: S. aureus membranes (versus erythrocyte membranes); test: in vitro; format: cell-based, sheep; settings: sheep
Procedure: as §3, §4

[6] = test system: erythrocyte membranes (versus S. aureus membranes); test: in vitro; format: cell-based, sheep; settings: sheep; read-out: selectivity for S. aureus membranes over erythrocyte membranes
Procedure: as §3, §4

[7] = Staphylococcus aureus, MRSA, MRSA clinical strain FPR3757, Mueller-Hinton broth, CLSI guidelines, complete inhibition of observable growth, read-out: MIC

Structure (SMILES): FC(F)(F)c1ccc2c(Nc3ccc(Cl)c(Cl)c3)cc(C(F)(F)F)nc2c1 [Compound 22]
MIC (E. faecalis SMC374; SMC374): 0.125 µg/mL (≈ 0.294 µM)
MIC (K. pneumonia 7117): > 4 µg/mL
MIC (E. coli DHMC-1): > 4 µg/mL
time-kill: CFU reduction (S. aureus (MRSA)): reduced the CFU below the limit of detection at four to six hours
MIC (E. faecium ATCC19579; ATCC19579): 0.125 µg/mL (≈ 0.294 µM)
MIC ([1]; Staphylococcus aureus, MRSA): 0.0625 µg/mL (≈ 0.147 µM)
MIC [1, 7]: 0.06 µg/mL (≈ 0.141 µM)
MIC against C. albicans as multiple of MIC (C. albicans): >16× × MIC
MIC (S. aureus NIH04008): 0.125 µg/mL (≈ 0.294 µM)
MBC relative to MIC [2]: MBCs equal to their MIC values
MIC (S. aureus MW2): 0.125 µg/mL (≈ 0.294 µM)
MIC (E. cloacae ND-21): > 4 µg/mL

Structure (SMILES): FC(F)(F)c1ccc(Nc2cc(C(F)(F)F)nc3cc(C(F)(F)F)ccc23)nc1 [Compound 31]
hemolysis (sheep erythrocytes): None of the compounds except 76, displayed any hemolysis
MIC (E. faecalis SMC374; E. faecalis strain SMC374, read-out: MIC): 2 µg/mL (≈ 4.7 µM)
MIC (K. pneumonia 7117): > 64 µg/mL
MIC (E. coli DHMC-1): > 64 µg/mL
time-kill: CFU reduction (S. aureus (MRSA)): reduced the CFU below the limit of detection at four to six hours
MIC (E. faecium ATCC19579; E. faecium strain ATCC19579, read-out: MIC): 0.25 to 1 µg/mL (≈ 0.588 to 2.35 µM)
fold loss of potency (MIC) relative to the comparator ([1]; MRSA FPR3757 MIC ratio): 4 fold
MIC [1, 7]: 0.25 µg/mL (≈ 0.588 µM)
DNA and cell wall staining (Hoechst, Van-FL) (S. aureus (strain COL)): little or no change compared to the DMSO control
membrane staining (FM 4-64) (S. aureus (strain COL)): membrane defects
inhibition of DNA, RNA, protein and cell-wall synthesis (Staphylococcus simulans; 0.5×, 1× and 5× MIC): concentration-dependent inhibition of DNA, RNA, protein and cell-wall synthesis
inhibition of macromolecular processes at 5× MIC (Staphylococcus simulans; 5× the MIC, DNA, RNA, protein, cell wall precursor incorporation): completely inhibited all macromolecular processes
MIC against C. albicans as multiple of MIC (C. albicans): >16× × MIC
MIC (S. aureus NIH04008): 0.125 µg/mL (≈ 0.294 µM)
MBC relative to MIC [2]: MBCs equal to their MIC values
cell morphology in TEM images [3]: cross-wall-septum formation with reduced splitting; also recorded: mesosome-like membrane inclusions
MIC (S. aureus MW2): 0.125 µg/mL (≈ 0.294 µM)
MIC (E. cloacae ND-21): > 64 µg/mL
MIC [4]: 0.125 to 0.25 µg/mL (≈ 0.294 to 0.588 µM)

Structure (SMILES): O=c1cc(C(F)(F)F)[nH]c2cc(C(F)(F)F)cc(Nc3ccc(Cl)c(Cl)c3)c12 [Compound 108]
selectivity ratio [5]: > 500
MIC [1, 7]: < 0.06 µg/mL

Structure (SMILES): O=c1cc(C(F)(F)F)[nH]c2cc(C(F)(F)F)cc(Nc3ccc(F)c(F)c3)c12 [Compound 109]
selectivity ratio [5]: > 500
MIC [1, 7]: < 0.06 µg/mL

MIC [1, 7]: 0.06 to 0.12 µg/mL (≈ 0.132 to 0.263 µM)
Structure (SMILES): O=c1cc(C(F)(F)F)[nH]c2cc(C(F)(F)F)cc(Nc3cccc(OC(F)(F)F)c3)c12 [Compound 110]
selectivity ratio [6]: > 500

MIC ([1]; MRSA clinical strain FPR3757, Mueller-Hinton broth, CLSI guidelines, complete inhibition of observable growth): 2 µg/mL (≈ 4.85 µM)
MIC [1, 7]: 1 to 2 µg/mL (≈ 2.43 to 4.85 µM)
Structure (SMILES): O=c1cc(C(F)(F)F)[nH]c2cc(C(F)(F)F)cc(Nc3cccc4[nH]ncc34)c12 [Compound 116]
